# From US7666879B2, “Imidazo[1,2-A]pyridine compounds as VEGF-R2 inhibitors” (Eli Lilly and Company, priority 2005, dated 2010)
# Key:
# [1] = target: T1, VEGFR2 (KDR) (Homo sapiens, UniProt P35968); assay: KDR-CD in vitro autophosphorylation kinase assay; type: biochemical; details: 30 minute preincubation of compound and enzyme; average of at least two separate determinations; 1 μM ATP
# T1 construct: The isolated catalytic domain (Amino Acids 807-1356) of VEGFR2; 6xHis (N); made in house; host or cells: Sf9 insect cells (baculovirus, pFASTBac-HIS)
# T1 sequence (P35968 807-1356): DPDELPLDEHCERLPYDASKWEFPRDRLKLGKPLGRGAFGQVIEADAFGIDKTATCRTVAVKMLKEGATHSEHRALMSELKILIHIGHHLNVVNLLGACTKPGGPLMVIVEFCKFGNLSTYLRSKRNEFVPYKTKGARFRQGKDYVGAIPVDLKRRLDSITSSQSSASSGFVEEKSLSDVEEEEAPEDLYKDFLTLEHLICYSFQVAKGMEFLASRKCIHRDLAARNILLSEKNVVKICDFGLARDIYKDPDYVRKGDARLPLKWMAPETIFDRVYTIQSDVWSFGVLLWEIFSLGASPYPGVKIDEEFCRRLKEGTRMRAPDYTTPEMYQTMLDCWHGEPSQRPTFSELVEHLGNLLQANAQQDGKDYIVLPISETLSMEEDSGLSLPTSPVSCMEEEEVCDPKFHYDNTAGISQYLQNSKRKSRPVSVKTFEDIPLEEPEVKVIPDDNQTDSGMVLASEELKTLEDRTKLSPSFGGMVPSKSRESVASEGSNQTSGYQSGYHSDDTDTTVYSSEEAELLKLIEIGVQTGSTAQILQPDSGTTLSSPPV
# Protocol: The following assay is performed to measure the IC50 values of inhibition of phosphorylation of VEGF-R2 with compounds of the present invention.
# Autophosphorylation Enzyme Assay
# A. VEGFR2 (KDR) cloning and purification.
# The isolated catalytic domain (Amino Acids 807-1356) of VEGFR2 (KDR-CD, cloned from a human heart cDNA library) is cloned by standard PCR procedures (pCR-Script to make plasmid P340) as a BamHI/HindIII fragment using the following primers: Upper: 5′-[…]-3′ and Lower: 5′-[…]-3′, its nucleotide sequence is verified and it is subcloned into the pFASTBac-HIS™ vector system (Gibco-BRL) (to give plasmid B344) for baculovirus expression. (Carroll, et al., J. Biol. Chem, 268, 12837-42 (1993). KDR-CD is expressed as an N-terminal 6×HIS fusion protein in Sf9 cells (Gibco-BRL) and purified according to standard affinity chromatography protocols (For example, Amersham Pharmacia Biotech: Affinity Chromatography Principles and Methods #18-1022-29). Briefly, 15-25 g pellets are lysed in lysis buffer (50 mM Tris pH 7.5, 150 mM NaCl, 0.5% NP40 (CalbioChem) with freshly added 20 mM -mercaptoethanol, 10 mM imidazole, 1 mM PMSF(protease inhibitor (phenylmethanesulfonyl fluoride) from Sigma), 1×EDTA-free complete protease inhibitor (Boehringer Mannheim)) on ice for 30 minutes. The cell lysates are cleared by centrifugation at 30,000 g for 20 minutes at 4° C., filtered through a […] and applied to a NiNTA™ column (Qiagen). Unbound protein is removed with successive RIPA buffer washes (50 mM Tris pH 7.5, 150 mM NaCl, 1% NP40, 1 mM EDTA, 0.25% sodium deoxycholate, 20 mM -mercaptoethanol), lysis buffer washes and finally 1× kinase buffer (KB) washes (100 mM HEPES pH 7.5, 10 mM MnCl2, 5 mM -mercaptoethanol). KDR protein is eluted in 1× KB containing a linear gradient of 200 mM imidazole over 10 column volumes. The peak fractions (based on a SDS-PAGE gel analysis) are combined, concentrated by Centricon™ to ˜1 mg/mL and desalted over an HR26/10 desalting column (Amersham Pharmacia) in 1× KB. This KDR prep is estimated to be ˜40% pure with only KDR tyrosine kinase activity detectable by anti-phosphotyrosine western analysis following the in vitro autophosphorylation reaction.
# B. KDR-CD In Vitro Autophosphorylation Kinase Assay
# Kinase reactions contain 1 μg total protein in 40 μL reaction volume containing 4% (v/v) DMSO final concentration, 1 μM ATP, 1 uCi/rxn ^33P-ATP (from NEN) in 1×KB. A compound dilution series of 20 μM to 1.0 nM is added to the above reaction to determine compound activity; test compound may be pre-incubated with KDR enzyme for up to 30 minutes at 30° C. prior to addition of the radiolabel. The radiolabeling reaction is carried out at 30° C. for 20 minutes before adding 100 μL 25% TCA with 3 mM ATP to stop the reaction, then precipitated with 50 μL 1 mg/mL BSA. The quenched reactions are transferred to MultiScreen™-FC plates (Millipore) and incubated for 1 hour at room temperature. The plates are filtered, washed 3× with 250 μL 10% TCA and blotted dry. MicroScint™20 (Packard) is added and the plate is counted on a Wallac Microbeta™. Dougher-Vermazen, M. et al., Biochem Biophys Res Commun 205(1): 728-738 (1994). The IC50 values are calculated from a logistic 4-parameter curve fit.
# All values are determined using a 30 minute preincubation of compound and enzyme prior to initiating the labeling reaction and represent the average of at least two separate determinations: […]
# [2] = test system: PC-3 human prostate adenocarcinoma cells; assay: In vivo efficacy in PC-3 prostate tumor xenografts; design: species or system mice; key to Mean Tumor Volume: mg, volume calculated as l×w^2×0.536 from caliper diameters; details: for Signif. (tumor volume vs vehicle control, two-way ANOVA) / Mean Tumor Volume: oral gavage
# Protocol: In Vivo Efficacy in PC-3 Prostate Tumor Xenografts
# Male SCID mice (Fox Chase, Taconic laboratories) are implanted s.c. in the rear flank with 0.2 mL of a cell suspension prepared in serum-free media containing 5×10^6 PC-3 human prostate adenocarcinoma cells (obtained from ATCC). Example 130 is prepared as a suspension in 1% CMC/0.25% Tween 80 and administered by oral gavage for 21 days beginning after tumors reach approximately 150-200 mg (volume calculated by l×w^2×0.536 where l is the larger and w is the smaller of perpendicular diameters determined by caliper measurement). Example 130 is administered twice daily (12 hours apart) for the 15, 7.5, and 3.75 mg/kg doses while the 30 mg/kg dose is given once daily. Groups consists of 8 mice each and one group receives 0.2 mL of the CMC/Tween vehicle twice daily as a control.
structure (smiles),measurement,setting,value
"CC(C)(C)c1cnc(NC(=O)NCc2ccc(-c3cnc4cc(-c5ccncc5)ccn34)cc2)s1 [Example 39, 1-(5-tert-Butyl-thiazol-2-yl)-3-[4-(7-pyridin-4-yl-imidazo[1,2-a]pyridin-3-yl)-benzyl]-urea, methane sulfonate]",IC50,[1],28 nM
"CC(C)(C)c1cc(NC(=O)Nc2ccc(-c3cnc4cc(-c5ccncc5)ccn34)cc2F)no1 [Example 130, 1-(5-tert-Butyl-isoxazol-3-yl)-3-[2-fluoro-4-(7-pyridin-4-yl-imidazo[1,2-a]pyridin-3-yl)-phenyl]-urea]",IC50,[1],42 nM
same,"Signif. (tumor volume vs vehicle control, two-way ANOVA)","[2]; 3.75 mg/kg twice daily, Day 55",** (**: 0.001 < p <= 0.01)
same,Mean Tumor Volume,"[2]; 3.75 mg/kg twice daily, Day 55, PC-3 xenograft in male SCID mice",268.1
same,"Signif. (tumor volume vs vehicle control, two-way ANOVA)","[2]; 3.75 mg/kg twice daily, Day 57",*** (***: p <= 0.001)
same,Mean Tumor Volume,"[2]; 3.75 mg/kg twice daily, Day 57, PC-3 xenograft in male SCID mice",310.1
same,"Signif. (tumor volume vs vehicle control, two-way ANOVA)","[2]; 7.5 mg/kg twice daily, Day 55",*** (***: p <= 0.001)
same,Mean Tumor Volume,"[2]; 7.5 mg/kg twice daily, Day 55, PC-3 xenograft in male SCID mice",100.8
same,"Signif. (tumor volume vs vehicle control, two-way ANOVA)","[2]; 7.5 mg/kg twice daily, Day 57",*** (***: p <= 0.001)
same,Mean Tumor Volume,"[2]; 7.5 mg/kg twice daily, Day 57, PC-3 xenograft in male SCID mice",86.3
same,"Signif. (tumor volume vs vehicle control, two-way ANOVA)","[2]; 15 mg/kg twice daily, Day 55",*** (***: p <= 0.001)
same,Mean Tumor Volume,"[2]; 15 mg/kg twice daily, Day 55, PC-3 xenograft in male SCID mice",67.7
same,"Signif. (tumor volume vs vehicle control, two-way ANOVA)","[2]; 15 mg/kg twice daily, Day 57",*** (***: p <= 0.001)
same,Mean Tumor Volume,"[2]; 15 mg/kg twice daily, Day 57, PC-3 xenograft in male SCID mice",62.2
same,"Signif. (tumor volume vs vehicle control, two-way ANOVA)","[2]; 30 mg/kg once daily, Day 55",*** (***: p <= 0.001)
same,Mean Tumor Volume,"[2]; 30 mg/kg once daily, Day 55, PC-3 xenograft in male SCID mice",95.7
same,"Signif. (tumor volume vs vehicle control, two-way ANOVA)","[2]; 30 mg/kg once daily, Day 57",*** (***: p <= 0.001)
same,Mean Tumor Volume,"[2]; 30 mg/kg once daily, Day 57, PC-3 xenograft in male SCID mice",86.8
same,"tumor volume, treatment groups versus control group at study termination","[2]; male SCID mice, oral gavage for 21 days, 15, 7.5, 3.75 mg/kg twice daily, 30 mg/kg once daily, two-way ANOVA",statistically different from the control group (p<0.001)
"O=C(Cc1ccc(-c2cnc3cc(-c4ccncc4)ccn23)cc1)Nc1cccc(C(F)(F)F)c1 [Example 173, 2-[4-(7-Pyridin-4-yl-imidazo[1,2-a]pyridin-3-yl)-phenyl]-N-(3-trifluoromethyl-phenyl)-acetamide]",IC50,[1],26 nM
"CC(C)(C)c1cc(NC(=O)Cc2ccc(-c3cnc4cc(-c5ccc(S(C)(=O)=O)cc5)ccn34)cc2F)no1 [Example 196, N-(5-tert-Butyl-isoxazol-3-yl)-2-{2-fluoro-4-[7-(4-methanesulfonyl-phenyl)-imidazo[1,2-a]pyridin-3-yl]-phenyl}-acetamide]",IC50,[1],106 nM
"CC(C)(C)c1cc(NC(=O)Cc2ccc(-c3cnc4cc(-c5ccncc5)ccn34)cc2)ncn1 [Example 289, N-(6-tert-Butyl-pyrimidin-4-yl)-2-[4-(7-pyridin-4-yl-imidazo[1,2-a]pyridin-3-yl)-phenyl]-acetamide]",IC50,[1],41 nM
"CC(C)(C)c1cc(NC(=O)Cc2ccc(-c3cnc4cc(-c5cn[nH]c5)ccn34)cc2)no1 [Example 303, N-(5-tert-Butyl-isoxazol-3-yl)-2-{4-[7-(1H-pyrazol-4-yl)-imidazo[1,2-a]pyridin-3-yl]-phenyl}-acetamide]",IC50,[1],46 nM
